Patent publication US11679111B2, “Fatty acid synthase inhibitors” (priority 2016, dated 2023)
Read-outs that look alike come from different tables or passages of the source.

How the values were obtained:
[1] = Cellular toxicity / viability in the TZM-bl model; conditions: human, TZM-bl cells
Description: (§1) The data presented are mean values (±SD) from three independent experiments. ** Indicates p<0.0001, treatment versus DMSO-treated control (Students t-test).

[2] = test system: TZM-bl cells; assay: Cellular toxicity / viability in the TZM-bl model
Description: as §1

[3] = biological target: T1, human FASN (Homo sapiens, UniProt P49327); assay: FASN activity assay, 2-[14C] malonyl CoA incorporation into lipids by purified enzyme; assay type: biochemical
T1 construct: endogenous in cells; host or cells: BT474 cells; endogenous enzyme purified by ammonium sulfate cuts and Sephacryl S-300 gel filtration, about 85% pure
T1 sequence (P49327 whole entry): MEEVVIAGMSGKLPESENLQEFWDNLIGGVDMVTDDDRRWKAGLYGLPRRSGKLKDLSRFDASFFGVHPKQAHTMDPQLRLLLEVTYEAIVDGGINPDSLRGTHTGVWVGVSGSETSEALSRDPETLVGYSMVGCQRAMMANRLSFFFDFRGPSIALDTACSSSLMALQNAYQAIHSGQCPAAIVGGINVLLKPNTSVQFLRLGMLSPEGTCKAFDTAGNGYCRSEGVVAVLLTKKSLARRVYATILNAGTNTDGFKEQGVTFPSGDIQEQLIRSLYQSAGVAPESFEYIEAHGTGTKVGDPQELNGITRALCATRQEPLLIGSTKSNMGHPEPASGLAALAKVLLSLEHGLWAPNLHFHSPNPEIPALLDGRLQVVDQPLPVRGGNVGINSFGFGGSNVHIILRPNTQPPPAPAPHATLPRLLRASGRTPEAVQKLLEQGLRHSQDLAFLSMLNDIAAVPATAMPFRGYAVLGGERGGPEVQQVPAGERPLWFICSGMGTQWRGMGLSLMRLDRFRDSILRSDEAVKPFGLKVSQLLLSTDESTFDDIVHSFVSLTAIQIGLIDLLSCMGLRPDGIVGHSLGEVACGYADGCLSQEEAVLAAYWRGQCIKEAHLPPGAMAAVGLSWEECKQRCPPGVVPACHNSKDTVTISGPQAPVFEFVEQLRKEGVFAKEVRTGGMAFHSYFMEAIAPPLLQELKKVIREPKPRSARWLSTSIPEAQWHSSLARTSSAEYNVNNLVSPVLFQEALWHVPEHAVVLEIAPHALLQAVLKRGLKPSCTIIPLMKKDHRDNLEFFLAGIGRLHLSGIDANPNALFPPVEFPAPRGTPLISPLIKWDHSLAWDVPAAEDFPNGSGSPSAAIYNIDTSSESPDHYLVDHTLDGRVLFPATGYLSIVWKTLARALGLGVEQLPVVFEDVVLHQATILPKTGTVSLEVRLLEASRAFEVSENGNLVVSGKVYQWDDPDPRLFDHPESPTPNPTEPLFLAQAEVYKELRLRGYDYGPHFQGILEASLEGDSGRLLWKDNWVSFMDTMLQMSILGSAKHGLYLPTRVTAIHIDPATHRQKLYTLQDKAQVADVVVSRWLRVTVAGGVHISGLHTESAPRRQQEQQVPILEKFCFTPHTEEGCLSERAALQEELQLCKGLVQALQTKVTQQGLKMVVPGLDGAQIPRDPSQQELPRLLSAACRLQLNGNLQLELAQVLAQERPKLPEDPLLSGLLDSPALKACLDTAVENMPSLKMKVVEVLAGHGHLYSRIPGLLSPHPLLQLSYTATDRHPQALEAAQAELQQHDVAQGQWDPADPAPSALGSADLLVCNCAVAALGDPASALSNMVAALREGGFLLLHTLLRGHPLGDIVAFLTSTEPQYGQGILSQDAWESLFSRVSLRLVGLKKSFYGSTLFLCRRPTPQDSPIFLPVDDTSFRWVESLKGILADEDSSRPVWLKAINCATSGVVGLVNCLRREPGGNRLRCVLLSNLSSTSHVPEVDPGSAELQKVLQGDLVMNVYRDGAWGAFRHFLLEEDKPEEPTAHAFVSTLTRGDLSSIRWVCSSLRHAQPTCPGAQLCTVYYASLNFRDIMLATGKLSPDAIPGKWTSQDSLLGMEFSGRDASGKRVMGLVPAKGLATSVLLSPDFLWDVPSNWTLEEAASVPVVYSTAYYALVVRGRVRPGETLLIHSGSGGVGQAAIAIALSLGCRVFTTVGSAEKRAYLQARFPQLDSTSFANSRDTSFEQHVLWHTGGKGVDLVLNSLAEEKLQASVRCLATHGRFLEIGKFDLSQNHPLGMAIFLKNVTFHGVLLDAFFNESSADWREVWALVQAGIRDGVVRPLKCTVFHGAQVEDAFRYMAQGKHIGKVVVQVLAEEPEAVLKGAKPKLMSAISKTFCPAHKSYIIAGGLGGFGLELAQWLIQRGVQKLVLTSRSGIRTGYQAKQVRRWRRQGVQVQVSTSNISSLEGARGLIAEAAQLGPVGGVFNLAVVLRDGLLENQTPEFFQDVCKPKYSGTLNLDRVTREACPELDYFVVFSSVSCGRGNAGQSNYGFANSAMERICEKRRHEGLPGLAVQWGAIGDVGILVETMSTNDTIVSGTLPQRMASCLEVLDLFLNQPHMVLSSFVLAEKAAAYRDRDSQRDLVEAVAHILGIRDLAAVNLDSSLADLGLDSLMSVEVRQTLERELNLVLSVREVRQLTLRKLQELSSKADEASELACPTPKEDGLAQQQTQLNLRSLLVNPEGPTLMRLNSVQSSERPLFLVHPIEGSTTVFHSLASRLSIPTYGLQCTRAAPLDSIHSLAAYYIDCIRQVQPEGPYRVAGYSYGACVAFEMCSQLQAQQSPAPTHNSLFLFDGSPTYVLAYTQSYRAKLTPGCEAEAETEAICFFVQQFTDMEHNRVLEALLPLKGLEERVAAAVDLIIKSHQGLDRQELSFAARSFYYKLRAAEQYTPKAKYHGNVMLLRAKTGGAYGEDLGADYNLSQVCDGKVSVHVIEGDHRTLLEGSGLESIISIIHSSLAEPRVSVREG
Description: Human FASN activity was measured by monitoring the incorporation of 2-[^14C] malonyl CoA into fatty acids using liquid scintillation counting by a method similar to the one described by Richardson et al (Richardson and Smith, 2007). FASN (10 μg/ml of PBS containing 1 mM DTT and 1 mM EDTA) was pre-incubated with different concentrations of HS-106 (final DMSO concentration 1%) at 37° C. for 30 minutes, then substrates were added (20 μM acetyl CoA and 200 μM NADPH) in a total reaction volume of 100 μl. The reaction was initiated by adding 10 μl of 50 μM malonyl CoA spiked with 0.05 μCi of 2-[^14C] malonyl CoA. After incubation for 30 minutes at 37° C., lipids were extracted 3 times with 150 μl (2:1, v/v) chloroform:methanol. Then, to the pooled organic phases, 1 ml of toluene containing 25 g/L Butyl-PBD was added and radioactivity was measured by liquid scintillation counting.
Confluent BT474 cells grown in high glucose DMEM with 10% FBS, were scraped and washed two times with ice cold PBS. […]
Human FASN activity was measured by monitoring the incorporation of 2-[^14C] […] Then, to the pooled organic phase, 1 ml of Toluene containing […] Butyl PBD was added and radioactivity was measured by scintillation counting. […]

[4] = test system: HIV-1; assay type: cell-based
Description: (A) TZM-bl cells were transfected with pNL4-3 provirus plasmid for 48 h in the presence or absence of 10 μM Fasnall or C75 or DMSO (0.01%). Intracellular expression of HIV-1 proteins was monitored by HIVIG-western blot, and β-actin was used as loading control. (B) Supernatant associated virion production was monitored using a p24 ELISA. (C) 48 hours post-transfection, cell culture supernatants were removed and incubated with fresh TZM-bl (indicator) cells for an additional 48 hrs. Values expressed as the mean±standard deviation, and are representative of three independent experiments. p-values were generated with student's t-test. Molecular weight markers (kD) indicated in right margin.
To test further the hypothesis that HIV-1 replication requires FASN activity during the late stages of viral replication, TZM-bl or SupT1 (data not shown) cells were transfected with a HIV-1 provirus (pNL43) in the presence or absence of Fasnall or C75. […] Thus, FASN inhibition reduces nascent HIV-1 virion production without reducing HIV-1 protein synthesis.

For `Cc1sc2ncnc(NC3CCN(Cc4ccccc4)C3)c2c1C` (racemic) [HS-106, N-(1-benzylpyrrolidin-3-yI)-5,6-dimethylthieno[2,3-d]pyrimidin-4-amine], the CC50 [1] was 10 µM, the “TZM-bl cell viability (MTT-activity)” value [2] was “without significant effects on TZM-bl cell viability” and the IC50 [3] was 3.71 µM. The IC50 ([3]; FIG. 2E, read-out: IC50, native human FASN (purified)) was 0.046 µM, the “HIV-1 p24 particle deposition into culture medium” value ([4]; TZM-bl, 10 μM, 48 h) was “significantly reduce HIV-1 p24 particle deposition into culture medium” and the “intracellular Gag levels” value ([4]; TZM-bl, 10 μM, 48 h) was “did not reduce intracellular Gag levels”. The “number of infectious HIV-1 particles” value ([4]; supernatants on fresh TZM-bl indicator cells) was “similarly reduced the number of infectious HIV-1 particles”.
